Experimental data as given in publication PMC5554167, “Intestinal transepithelial permeability of oxytocin into the blood is dependent on the receptor for advanced glycation end products in mice” (Scientific Reports, 2017).

Tests used:
[1] = much longer in mucosal tissues; cited from earlier work
From the text: OT absorption through the intestine was more difficult to detect in adults. The reasons for this difference with age may be owing to the progressive digestion of OT and strengthening of the gastrointestinal tract barrier. Similarly, a gradual decline in plasma OT concentrations during development appears to be caused by establishment of the intestinal barrier and intestinal digestion (Ref. [49] and Fig. 3d). Digestion is at a low level at birth and increases progressively during the first week in mice and humans. However, digestion of OT takes more than 30 min and is much longer in mucosal ...

[2] = Plasma OT after intestinal delivery of OT in pups (EIA); assay type: in vivo, mice
Protocol: To confirm that the above increase after oral administration was primarily owing to permeability from the intestine, 5 μL of 100 μM OT (0.5 μg/pup) was applied directly into the small intestine, bypassing the mouth, buccal mucosal membrane, and/or upper parts of the digestive tract, including the oesophagus and stomach. The plasma OT in blood samples collected from the neck (Fig. 2a, inset) reached a peak at 10 min and decreased at 60 min and 120 min after intestinal application (Supplementary Fig. 1). […] The plasma OT level was higher at PND1 and PND3 than at PND7 in the group injected with OT (***P < 0.001 and **P < 0.01; Fig. 2a).
OT (100 μM) was injected through needles (28 G) into the proximal part (1~2 cm from the pylorus) of the small intestine of pups (5 μL) and adults (100 μL) under ketamine anaesthesia ([…] intraperitoneally), after the abdominal skin was cut to expose the small intestine in the abdominal cavity. The intestine was returned to the cavity or covered with paper and rinsed with saline. For the isolated pup intestines, 30 μL of 10 μM OT was injected at the distal end.
(§1) Approximately 30 μL of blood was collected from the facial vein of neonates after quick cold anesthesia on ice (Fig. 1a; ref. [67], [68]). […]
(§2) OT or AVP immunoreactivity levels were quantified by using OT and AVP enzyme immunoassay (EIA) kits (Enzo Life Sciences, NY, USA), respectively. […]

[3] = Plasma OT after oral delivery of OT in adult mice (EIA); assay type: in vivo
Protocol: In adult male mice (8 weeks old), when oral OT was administered at the same dose used for neonates (1 μg/mouse), as in Fig. 1b, no increase in the plasma OT concentration was observed (data not shown). To examine whether permeability exists in the adult intestine after barrier formation, a 10-fold higher volume of OT (100 μM × 100 μL) was used for oral delivery (10 μg/mouse). Blood samples were collected from anesthetized mice using a tail snip procedure, and OT concentrations were measured (Fig. 5a, inset).
Milk-borne OT was fed by mothers for 20 min after 20 min of starvation. A synthetic OT solution (100 µM; 10 μL for pups and 100 μL for adults) was administered orally. The same dose of [ILe^13C, ^15N]OT was delivered orally to pups. For oral administration, pups or adult mice were held by hand, and the OT solution was dispensed into their mouths using polypropylene tips.
as §1, §2

[4] = cited from earlier work
From the text: Breast milk contains a dynamic supply of hormones, including oxytocin (OT[4], [5], [10]–[15]), which is concentrated from the mother’s general circulation. […] OT in early life plays a role in the development of the social brain and in establishing social behaviour in adults, [20]–[23]. Therefore, breast milk not only nourishes beneficial microbes and provides immunity but also appears to improve well-being by improving human communication, [24]–[28]. Altho ...

[5] = Plasma OT after oral delivery of OT in pups (EIA); assay type: in vivo, mice; details: both sexes, C57BL/6N, 1 μg/mouse, wild-type pups PND6, oral 1 μg of OT/mouse, n = 5–8, read-out: Time of peak plasma OT concentration (converted)
Protocol: The possibility of transport during the suckling period of development (from PND1 to PND15) was confirmed by comparing plasma OT levels at 10 min after oral delivery with 10 μL of 100 μM synthetic OT solution (1 μg/pup) or the same volume of phosphate buffered saline (PBS) to male and female pups after fasting for 30 min. […] The plasma OT concentrations after oral OT delivery remained at higher levels at PND3–5 than in the saline controls (two-way analysis of variance (ANOVA), F 8.90 = 3.32, P < 0.002: Bonferroni’s post hoc tests for differences between OT and PNDs (^a P < 0.001, ^b P < 0.01, and ^c P < 0.05 from the value at PND8) and between OT and PBS (^d P < 0.01). The OT concentration dropped suddenly after PND6, although it remained higher than that in the saline control group. At PND8 and PND15, no concentration difference in plasma OT levels was observed between pups orally administered OT vs. those administered PBS.
The time profile of the plasma OT concentration after oral administration of OT peaked at 10 min in pups at PND6 (n = 5–8, one-way ANOVA, F 5,37 = 3.302, P < 0.02 from the control value; Fig. 1c). The plasma OT level depended on the oral OT dose in pups at PND6 (one-way ANOVA, F 3,24 = 20.35, P < 0.0001; Fig. 1d). […]
as §2

[6] = Plasma OT after suckling of dam's milk in pups, estimate of availability; assay type: in vivo, mice
Protocol: […] No clear difference in the OT level was observed between male and female pups.
An estimation of bioavailability was performed in adult mice. Fifty ng/mL of OT was detected after oral delivery of 10 μg of OT. Young adults weigh approximately 30 g and have 2.3 mL blood, so approximately 1% of oral OT can be absorbed. We have previously identified OT in the mammary tissues of mouse dams and in the milk curd inside the oesophagi of pups[13]. To determine the OT concentrations in milk, we needed to collect milk from the mothers. One common method is to collect milk after stimulating secretion with external OT. Because such milk contains external OT, we were unable to calculate the OT concentrations in milk. However, we carried out a new collection method without exogenous OT stimulation. We obtained samples at 5 days after parturition, and the concentration of milk OT was 1,200 pg/mL. If we estimate a pup’s milk intake to be 100 μL, the pups will ingest 120 pg of OT. […] According to Tanaka et al.[11], when [^3H]OT is administered to lactating rats, the radioactivity of intact OT in the neonatal content is 4.4% of the counts obtained for the maternal plasma. […]
as §2

[7] = [3H]OT administered to lactating rats; cited from earlier work

| Molecule | Time for digestion of OT [1] | Tmax ([2]; both sexes, C57BL/6N, mouse, plasma, pups (PND5, Supplementary Fig. 1), 0.5 μg/pup into the small intestine, read-out: Time of peak plasma OT concentration (converted)) [min] | Decrease of plasma OT concentration from PND1 to PND7 ([2]; wild-type pups, 10 min after intestinal OT injection (0.5 μg/pup)) | Change of plasma OT concentration ([3]; adult male mice (8 weeks old), oral 1 μg/mouse, data not shown) | Oral OT absorbed (estimated bioavailability) ([3]; adult mice, oral 10 μg of OT, assumes 30 g weight and 2.3 mL blood) | Stability in gastric acid [4] | Tmax [5] [min] | Availability of milk OT ([6]; PND5 pups, milk OT 1,200 pg/mL, milk intake 100 μL (120 pg), blood volume 200 μL, increase 20 pg) [%] | Increase of plasma OT after suckling ([6]; pups fed with dam's milk) | Radioactivity of intact OT in the neonatal content, % of the counts of maternal plasma [7] [%] |
| --- | --- | --- | --- | --- | --- | --- | --- | --- | --- | --- |
| CC[C@H](C)[C@@H]1NC(=O)[C@H](Cc2ccc(O)cc2)NC(=O)[C@@H](N)CSSC[C@@H](C(=O)N2CCC[C@H]2C(=O)N[C@@H](CC(C)C)C(=O)NCC(N)=O)NC(=O)[C@H](CC(N)=O)NC(=O)[C@H](CCC(N)=O)NC1=O [OT, oxytocin] | more than 30 min | 10 | approximately 4.6 fold | no increase | approximately 1% | relatively stable | 10 | 16.6 | approximately 100 pg/mL | – |
| [^3H]OT: tritium-labelled oxytocin administered to lactating rats in a cited study | – | – | – | – | – | – | – | – | – | 4.4 |
